{
  "source": "patent US6437093B1",
  "about": "“Methods of treatment comprising administration of Substance P” (Milkhaus Laboratory, Inc., priority 2000, dated 2002)",
  "type_in_all_cases": "in vivo, human",
  "key": {"[1]": {"tested_on": "repetitive, almost tic-like, exaggerated cough", "assay": "Case report: repetitive tic-like exaggerated cough, sublingual Substance P", "conditions": "child", "protocol": "Their disease appeared to be initiated by chronic exposure to floor stripper which caused RUDS (Reactive Upper Airway Dysfunction). […] Each drop contained 8×10−^5 mg synthetic Substance P (Sigma) in phosphate buffered saline. According to this example, a child presented with a repetitive, almost tic-like, exaggerated cough that was disruptive to their classmates and teacher. Several physicians were consulted without success and with no apparent cause found for the cough."}, "[2]": {"tested_on": "arthritis-like pain and inflammation of the knuckles", "assay": "Case report: arthritis-like pain and inflammation of the knuckles, sublingual Substance P", "conditions": "person; after three days of sublingual drop therapy, continued after two months", "protocol": "Their disease appeared to be initiated by chronic exposure to floor stripper which caused RUDS (Reactive Upper Airway Dysfunction). […] Each drop contained 8×10−^5 mg synthetic Substance P (Sigma) in phosphate buffered saline. According to this example, a person with arthritis-like pain and inflammation of the knuckles but who tested negative for rheumatoid factor. […] The subject was treated by sublingual administration of Substance P according to the method. of Example 1."}, "[3]": {"tested_on": "severe sciatic-like pain of the hip", "assay": "Case report: severe sciatic-like hip pain in a diabetic subject, sublingual Substance P", "conditions": "person with diabetes; sublingual administration as in Example 1", "protocol": "Their disease appeared to be initiated by chronic exposure to floor stripper which caused RUDS (Reactive Upper Airway Dysfunction). […] Each drop contained 8×10−^5 mg synthetic Substance P (Sigma) in phosphate buffered saline. According to this example, a person presented with severe sciatic-like pain of the hip of long duration. The subject also presented with a diagnosis of diabetes. […] They continue well for over two years."}, "[4]": {"tested_on": "upper airway distress, persistent cough, RUDS (Reactive Upper Airway Dysfunction)", "assay": "Case report: persistent cough from RUDS triggered by volatile chemicals, sublingual Substance P", "conditions": "person with RUDS; sublingual drop 8×10−^5 mg, one drop per hour for three hours then four times daily", "protocol": "His disease appeared to be initiated by chronic exposure to floor stripper which caused RUDS (Reactive Upper Airway Dysfunction). […] Each drop contained 8×10−^5 mg synthetic Substance P (Sigma) in phosphate buffered saline."}, "[5]": {"tested_on": "numbness, tingling and severe pain in feet and legs", "assay": "Case report: numbness, tingling and severe pain in feet, legs and hands, sublingual Substance P", "conditions": "person; sublingual administration as in Example 1", "protocol": "Their disease appeared to be initiated by chronic exposure to floor stripper which caused RUDS (Reactive Upper Airway Dysfunction). […] Each drop contained 8×10−^5 mg synthetic Substance P (Sigma) in phosphate buffered saline. According to this example, a person presented with a history of numbness, tingling and severe pain in feet and legs eight years earlier. During the year immediately preceding their first office visit, the discomfort had spread to their hands. […] No cause of their discomfort could be determined, and the only relief they obtained was from narcotic analgesics."}, "[6]": {"tested_on": "RUDS manifested as severe hoarseness or aphonia", "assay": "Case report: RUDS with severe hoarseness or aphonia, sublingual Substance P", "conditions": "person, one drop four times daily or more if needed", "protocol": "Their disease appeared to be initiated by chronic exposure to floor stripper which caused RUDS (Reactive Upper Airway Dysfunction). […] Each drop contained 8×10−^5 mg synthetic Substance P (Sigma) in phosphate buffered saline. According to this example, a person presented RUDS that manifested as severe hoarseness or even aphonia if exposed to volatile chemicals, and especially to fragrances. They had suffered for several years after being exposed to fragrances from several co-workers using multiple perfumes. Their airway problem was reduced only by complete avoidance of any exposure to volatile chemicals which dramatically changing their lifestyle. […] Their RUDS continues to be controlled by taking one drop of Substance P four times daily, or more frequently if needed."}, "[7]": {"tested_on": "chronic sciatic pain", "assay": "Case report: chronic disabling sciatic pain, sublingual Substance P", "conditions": "person", "protocol": "Their disease appeared to be initiated by chronic exposure to floor stripper which caused RUDS (Reactive Upper Airway Dysfunction). […] Each drop contained 8×10−^5 mg synthetic Substance P (Sigma) in phosphate buffered saline. According to this example, a person presented with a diagnosis of chronic sciatic pain that was disabling and of several years duration. Analgesics helped reduce the pain. The subject was treated by sublingual administration of Substance P according to the method of Example 1."}},
  "note": "Ends that are not written are not given here.",
  "data": [
    {"substance": "Substance P (RPKPQQFFGLM; not fully specified (C-terminus); UniProt P20366 58-68, looked up) [synthetic Substance P (Sigma) in phosphate buffered saline; a tachykinin naturally occurring in the body]", "values": [
      {"measurement": "long-term control of cough disorder", "setting": "[1]; continued sublingual treatment", "value": "continued to control this disorder after more than a year"},
      {"measurement": "effect on cough", "setting": "[1]; sublingual administration as in Example 1", "value": "stopped the cough within minutes"},
      {"measurement": "effect on arthritis-like pain and inflammation", "setting": "[2]", "value": "“remarkable” improvement"},
      {"measurement": "effect on sciatic-like hip pain", "setting": "[3]", "value": "reduced the pain dramatically"},
      {"measurement": "effect on persistent cough", "setting": "[4]", "value": "stopped almost immediately"},
      {"measurement": "need for narcotic analgesics", "setting": "[5]", "value": "able to discontinue narcotics"},
      {"measurement": "pain relief", "setting": "[5]", "value": "almost immediate pain relief"},
      {"measurement": "effect on RUDS (hoarseness/aphonia)", "setting": "[6]", "value": "significant improvement"},
      {"measurement": "long-term control of sciatic pain", "setting": "[7]; daily doses over several months", "value": "continued control of pain"},
      {"measurement": "effect on chronic sciatic pain after first drop", "setting": "[7]; first sublingual drop", "value": "instantly and dramatically “turned off” the pain"}
    ]}
  ]
}
